According to paper PMC11876671, “Investigating blood–brain barrier penetration and neurotoxicity of natural products for central nervous system drug development” (Scientific Reports, 2025):
Read-outs that look alike come from different tables or passages of the source.

Key:
[1] = system: GFP-labeled iPSC-derived human cortical glutamatergic neurons; assay: cells; assay type: cell-based
[2] = system: GFP-labeled iPSC-derived human cortical glutamatergic neurons; conditions: for AC50: read-out: Viability AC50 (48hr); for Viability AC50 (48 h): 48 h treatment
in vitro = conditions: PAMPA, PAMPA-BBB Pe
[3] = system: GFP-labeled iPSC-derived human cortical glutamatergic neurons; assay: cells; conditions: Neuron, 48 h
[4] = Table S1, 60 min, room temperature, 0.05 mM
[5] = Homo sapiens, Neuron, rounded values, read-out: AC50 (neurite outgrowth inhibition)
[6] = Homo sapiens, Neuron, total neurite length, 48 h treatment, read-out: TNL AC50 (48 h)
[7] = Table 1, 60 min, room temperature, 0.05 mM
[8] = Table S2: compounds exhibiting moderate to high PAMPA-BBB permeability
[9] = Homo sapiens, Neuron, Table S1, total neurite length, 48 hr, head prints no unit, µM per Table 1 and Fig. 5, read-out: TNL AC50 (48 hr)
[10] = read-out: Viability AC50 (48hr)
[11] = read-out: Viability AC50 (48 h)

Row | Compound | AC50 [1, 6] [µM] | PAMPA-BBB Pe [7] | PAMPA-BBB Pe [8] | Papp (in vitro; [4]) [×10⁻⁶ cm/s] | AC50 [1, 9] [µM] | AC50 [3, 10] [µM] | other results
1 | 2 ,4 -DIHYDROXYCHALCONE |  |  |  |  |  |  | AC50 ([1]; Table S1, total neurite length, 48 hr, head prints no unit, µM per Table 1 and Fig. 5, read-out: TNL AC50 (48 hr)): 16.9 µM; AC50 ([2]; Table S1, 48 hr, head prints no unit, µM per Table 1 and Fig. 5): 20.9 µM; PAMPA-BBB Pe [4]: 222.92 10^-6 cm/sec
2 | COc1ccc(-c2cc(=O)c3ccccc3o2)cc1OC [3’,4’-dimethoxyflavone] | 0.759 | 249.21 10 × 10^− 6 cm/sec | 249 10^-6 cm/sec | 249 |  |  | AC50 [1, 5]: 0.7 µM; Viability AC50 (48 h) [2]: inactive
3 | O=c1cc(-c2ccc(O)cc2)oc2cc(O)cc(O)c12 [Apigenin] |  |  | 36 10^-6 cm/sec | 36.2 | 35.9 | 37.2 | 
4 | CC(C)c1cc2c(c(O)c1O)[C@@]13CCCC(C)(C)[C@@H]1C[C@@H]2OC3=O [Carnosol] |  |  | 33 10^-6 cm/sec | 32.8 | 17.8 | 26.4 | 
5 | CC1=C(O)C(=O)C=C2C1=CC=C1[C@@]2(C)CC[C@@]2(C)[C@@H]3C[C@](C)(C(=O)O)CC[C@]3(C)CC[C@]12C [Celastrol] | 4.92 | 142.58 10 × 10^− 6 cm/sec |  | 143 | 4.92 | 5.47 | AC50 [3, 11]: 5.47 µM; Papp (in vitro; [8]): 143 ×10⁻⁶ cm/s
6 | COc1ccc2c(c[n+](C)c3c4cc5c(cc4ccc23)OCO5)c1OC [Chelerythrine chloride] | 2.79 | 94.67 10 × 10^− 6 cm/sec |  | 94.7 | 2.79 | 2.19 | AC50 [3, 11]: 2.19 µM
7 | CN1Cc2c(ccc3c2OCO3)[C@@H]2[C@H]1c1cc3c(cc1C[C@@H]2O)OCO3 [Chelidonine] |  |  | 75 10^-6 cm/sec | 75 | 7.54 | 5.8 | 
8 | COc1cc(-c2cc(=O)c3c(O)cc(O)cc3o2)ccc1O [Chrysoeriol] | 2.22 | 178.56 10 × 10^− 6 cm/sec |  | 179 |  |  | AC50 [1, 5]: 2.2 µM; Viability AC50 (48 h) [2]: inactive
9 | COc1ccc(/C=C\c2cc(OC)c(OC)c(OC)c2)cc1O [Combretastatin A4] | 0.028 | 315.59 10 × 10^− 6 cm/sec | 316 10^-6 cm/sec | 316 | 0.0277 | 0.047 | AC50 [3, 11]: 0.047 µM
10 | COc1cc(C)ccc1O [Creosol] |  |  |  |  |  | 10.5 | AC50 ([1]; Homo sapiens, Neuron, 48 h, read-out: TNL AC50 (48 hr)): 15.3 µM; PAMPA-BBB Pe (PAMPA): 115 10^-6 cm/sec; Papp (in vitro): 115 ×10⁻⁶ cm/s
11 | COC(=O)[C@H]1[C@H]2C[C@@H]3c4[nH]c5ccccc5c4CCN3C[C@H]2C[C@@H](OC(=O)c2cc(OC)c(OC)c(OC)c2)[C@@H]1OC [Deserpidine, reference compound] |  |  | 42 10^-6 cm/sec | 42.1 | 11.3 | 16.6 | 
12 | Cc1cc2c(C(C)C)c(O)c(O)c(C=O)c2c(O)c1-c1c(C)cc2c(C(C)C)c(O)c(O)c(C=O)c2c1O [Gossypol] |  |  | 393 10^-6 cm/sec | 393 | 7.6 | 6.91 | 
13 | Cc1nccc2c1[nH]c1ccccc12 [Harmane] | 3.21 |  |  |  | 3.21 |  | PAMPA-BBB Pe (PAMPA): 59.65 10 × 10^− 6 cm/sec; AC50 [3, 11]: 12.2 µM; Papp (in vitro): 59.6 ×10⁻⁶ cm/s
14 | COc1ccc2c(c1OC)C(=O)O[C@@H]2[C@H]1c2cc3c(cc2CCN1C)OCO3 [Hydrastine] |  |  | 57 10^-6 cm/sec | 57.4 | 26.1 | 22.8 | 
15 | COc1ccc(/C=C/C(=O)c2cc(O)ccc2O)cc1 [NCGC00096016-04] |  |  | 300 10^-6 cm/sec | 300 | 12.9 | 19.8 | 
16 | COc1cc2c(OC(C)=O)c3c(c(-c4ccc5c(c4)OCO5)c2cc1OC)C(=O)OC3 [NCGC00161918-01] |  |  | 349 10^-6 cm/sec | 349 | 3.1 | 9.92 | 
17 | COc1cc(O)c2c(c1)C1OC1C[C@H](O)[C@H](O)C(=O)C=CC[C@H](C)OC2=O (stereo partly shown) [NCGC00183677-03] |  |  | 69 10^-6 cm/sec | 69.3 | 35.9 | 28.2 | 
18 | COc1ccc(-c2coc3c(O)c(O)c(OC)cc3c2=O)cc1 [NCGC00264029-02] |  |  | 40 10^-6 cm/sec | 40.1 | 30.1 | 25.6 | 
19 | Cc1c(O)c(O)cc2c1CC=C1[C@@]2(C)CC[C@@]2(C)[C@H]3C[C@](C)(C(=O)O)CC[C@]3(C)CC[C@]12C [NCGC00264082-02] |  |  | 288 10^-6 cm/sec | 288 | 2.37 | 4.3 | 
20 | O=c1cc(N2CCOCC2)oc2c(-c3cccc4c3sc3ccccc34)cccc12 [NU-7441, 8-(4-DIBENZOTHIENYL)-2-(4-MORPHOLINYL)-4H-1-BENZOPYRAN-4-ONE, reference compound] | 2.85 | 101.9 10 × 10^− 6 cm/sec |  | 102 | 2.85 | 7.6 | AC50 [3, 11]: 7.6 µM
21 | C=C(C)[C@@H]1CCC2=CC(=O)C[C@@H](C)[C@]2(C)C1 [Nootkatone] |  |  | 63 10^-6 cm/sec | 63.3 | 13.1 | 3.98 | 
22 | COc1ccc2c(c1OC)C(=O)O[C@@H]2[C@H]1c2c(cc3c(c2OC)OCO3)CCN1C [Noscapine, reference compound] | 1.06 |  |  |  | 1.06 | 11.6 | AC50 [1, 5]: 1.1 µM; PAMPA-BBB Pe (PAMPA): 74.54 10 × 10^− 6 cm/sec; AC50 [3, 11]: 11.6 µM; Papp (in vitro): 74.5 ×10⁻⁶ cm/s
23 | C/C(=C\c1csc(C)n1)[C@@H]1C[C@@H]2O[C@]2(C)CCC[C@H](C)[C@H](O)[C@@H](C)C(=O)C(C)(C)[C@@H](O)CC(=O)O1 [Patupilone] | 0.007 | 10.52 10 × 10^− 6 cm/sec |  | 10.5 | 0.0068 |  | Viability AC50 (48 h) [2]: inactive; Papp (in vitro; [8]): 11 ×10⁻⁶ cm/s
24 | COC(=O)[C@H]1[C@H]2C[C@@H]3c4[nH]c5cc(OC)ccc5c4CCN3C[C@H]2C[C@@H](OC(=O)c2cc(OC)c(OC)c(OC)c2)[C@@H]1OC [Reserpine, reference compound] |  |  |  |  | 31.8 | 35.2 | PAMPA-BBB Pe (PAMPA): 90 10^-6 cm/sec; Papp (in vitro): 90.1 ×10⁻⁶ cm/s
25 | C=CC[C@@H]1/C=C(\C)C[C@H](C)C[C@H](OC)[C@H]2O[C@@](O)(C(=O)C(=O)N3CCCC[C@H]3C(=O)O[C@H](/C(C)=C/[C@@H]3CC[C@@H](O)[C@H](OC)C3)[C@H](C)[C@@H](O)CC1=O)[C@H](C)C[C@@H]2OC [Tacrolimus, reference compound] | 2.65 | 154.13 10 × 10^− 6 cm/sec | 154 10^-6 cm/sec | 154 | 2.65 | 4.19 | AC50 [3, 11]: 4.19 µM
26 | CC(/C=C/C(=O)NO)=C\[C@@H](C)C(=O)c1ccc(N(C)C)cc1 [Trichostatin A] | 1.66 | 54.74 10 × 10^− 6 cm/sec | 55 10^-6 cm/sec | 54.7 |  |  | AC50 [1, 5]: 1.7 µM; AC50 [3, 11]: 0.472 µM
27 | CC[C@]1(O)C[C@H]2CN(CCc3c([nH]c4ccccc34)[C@@](C(=O)OC)(c3cc4c(cc3OC)N(C=O)[C@H]3[C@@](O)(C(=O)OC)[C@H](OC(C)=O)[C@]5(CC)C=CCN6CC[C@]43[C@@H]65)C2)C1 [Vincristine, reference compound] |  |  |  |  |  |  | AC50 ([1]; read-out: TNL AC50 (48 hr)): 30.4 µM; AC50 [2]: 37.2 µM; PAMPA-BBB Pe (PAMPA): 21.19 10^-6 cm/sec
